Results: PMC6835510, “Magnificamide, a β-Defensin-Like Peptide from the Mucus of the Sea Anemone Heteractis magnifica, Is a Strong Inhibitor of Mammalian α-Amylases” (Marine Drugs, 2019)
Bridge positions count the residues as written; N and C are the ends. Ends that are not written are not given here.

Columns and labels:
[1] = target: T1, porcine pancreatic α-amylase (PPA) (Sus scrofa, UniProt P00690); assay: Determination of Ki against porcine pancreatic α-amylase (Morrison); assay type: biochemical; conditions: 37 °C, 50 mM sodium phosphate, 100 mM NaCl, pH 7.0; CNPG3 1 mM (KM 0.71 mM), nominal [E] 20 nM; 10 min pre-incubation; 405 nm; Morrison fit, competitive mode assumed; mean ± SE (n = 3)
T1 construct: purchased Sigma Aldrich A4268
T1 sequence (P00690 16-511): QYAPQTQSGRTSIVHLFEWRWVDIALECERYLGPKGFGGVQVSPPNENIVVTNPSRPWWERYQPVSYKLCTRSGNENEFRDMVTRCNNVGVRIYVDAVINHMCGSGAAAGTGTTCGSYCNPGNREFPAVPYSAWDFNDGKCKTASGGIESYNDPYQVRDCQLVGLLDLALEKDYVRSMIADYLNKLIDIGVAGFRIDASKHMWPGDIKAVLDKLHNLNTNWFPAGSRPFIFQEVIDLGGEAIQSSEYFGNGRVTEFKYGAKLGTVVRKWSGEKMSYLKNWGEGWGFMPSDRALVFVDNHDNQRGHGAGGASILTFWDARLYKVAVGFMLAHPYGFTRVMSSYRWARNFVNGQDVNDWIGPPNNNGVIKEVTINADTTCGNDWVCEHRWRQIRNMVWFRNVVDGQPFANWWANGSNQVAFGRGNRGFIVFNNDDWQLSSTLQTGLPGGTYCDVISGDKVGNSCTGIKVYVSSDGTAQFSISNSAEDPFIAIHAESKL
Description: (§1) For a quantitative assessment of tight-binding inhibitor potency, Morrison’s method was applied. This method uses the Morrison quadratic equation (Equation (1)) for fitting inhibitor-response data and determining Ki app as a nonlinear regression parameter. (1) υ/υo=1−([E]+[I]+Kiapp)−([E]+[I]+Kiapp)^2−4[E][I]/2[E]o
(§2) Kinetic assays were carried out at 37 °C in 50 mM sodium phosphate and 100 mM sodium chloride (pH 7.0). 2-Chloro-4-nitrophenyl-α-maltotrioside (CNPG3) (Sigma Aldrich, St. Louis, MO, USA) was used as the substrate and the optical absorption of the 2-chloro-4-nitrophenol was measured at 405 nm. Reactions were run with final [CNPG3] = 1 mM ([S]/KM = 1.41, KM = 0.71 mM), nominal [E] = 20 nM for PPA, [CNPG3] = 3.3 mM ([S]/KM = 0.97, KM = 3.4 mM), and nominal [E] = 100 nM for HSA to provide sufficient analytical signal. Inhibitor dilution schemes were optimized considering recommendations in [34].
(§3) The enzyme was pre-incubated with the inhibitor for 10 minutes before the addition of substrate which launched the reaction. Reactions were monitored on an xMark microplate spectrophotometer (BioRad, USA) in the kinetic mode for 30 min. The initial linear steady state region provided initial rate values for each inhibitor concentration (υ), along with uninhibited rate values (υo). Measurements were run in triplicate. […]

Shaker IR = assay: Two-electrode voltage-clamp; assay type: cell-based, Drosophila; conditions: 10 µM; insect channel; Xenopus laevis oocytes; 18–22 °C
Excerpt: (§4) For the expression of Nav channels (mammalian rNav1.2, rNav1.4, hNav1.5, mNav1.6 and hNav1.8 channels; the insect channel BgNav1 from Blattella germanica; and the auxiliary subunits rβ1, hβ1, and TipE) and Kv channels (mammalian rKv1.1, rKv1.2, hKv1.3, rKv1.4, rKv1.5, rKv1.6, rKv2.1, hKv3.1, rKv4.2, hKv10.1, and hERG; and Drosophila Shaker’s IR) in Xenopus laevis oocytes; the linearized plasmids were transcribed using the T7 or SP6 mMESSAGE-mMACHINE transcription kit (Ambion, Carlsbad, CA, USA). The harvesting of stage V–VI oocytes from anesthetized female Xenopus laevis frog was previously described. Oocytes were injected with 50 nL of cRNA at a concentration of 1 ng/nL using a microinjector (Drummond Scientific, Broomall, PA, USA). The oocytes were incubated in a solution containing 96-mM NaCl, 2-mM KCl, 1.8-mM CaCl2, 2-mM MgCl2, and 5-mM HEPES (pH 7.4), supplemented with 50 mg/L gentamycin sulfate.
Two-electrode voltage-clamp recordings were performed at room temperature (18–22 °C) using a Geneclamp 500 amplifier (Molecular Devices, Downingtown, PA, USA) controlled by a pClamp data acquisition system (Axon Instruments, Union City, CA, USA). Whole cell currents from oocytes were recorded 1–4 days after injection. […] All data were analyzed using pClamp Clampfit 10.0 (Molecular Devices, Downingtown, PA, USA) and Origin 7.5 software (Originlab, Northampton, MA, USA).

[2] = tested on: 18 subtypes of voltage-gated potassium and voltage-gated sodium channels; assay: Electrophysiological screening, overall; assay type: cell-based; conditions: 10 µM, Xenopus laevis oocytes
Excerpt: as §4
Two-electrode voltage-clamp recordings were performed at room temperature (18–22 °C) using a Geneclamp 500 amplifier (Molecular Devices, Downingtown, PA, USA) controlled by a pClamp data acquisition system (Axon Instruments, Union City, CA, USA). Whole cell currents from oocytes were recorded 1–4 days after injection. The bath solution’s composition was 96-mM NaCl, 2-mM KCl, 1.8-mM CaCl2, 2-mM MgCl2, and 5-mM HEPES (pH 7.4). Toxins were applied directly to the bath. Resistances of both electrodes were kept between 0.8 and 1.5 MΩ. The elicited currents were sampled at 20 kHz (Nav) or 2 kHz (Kv), filtered at 2 kHz (Nav) or 0.5 kHz (Kv) using a four-pole low-pass Bessel filter. Leak subtraction was performed using a -P/4 protocol. […] For the electrophysiological analysis, a number of protocols were applied from a holding potential of −90 mV with a start-to-start interval of 0.2 Hz. Kv1.1–Kv1.6 and Shaker currents were evoked by 250-ms depolarizations to 0 mV followed by a 250 ms pulse to −50 mV from a holding potential of −90 mV. […] All data were analyzed using pClamp Clampfit 10.0 (Molecular Devices, Downingtown, PA, USA) and Origin 7.5 software (Originlab, Northampton, MA, USA).

[3] = target: human salivary α-amylase (HSA) (Homo sapiens, UniProt P0DUB6); assay: Determination of Ki against human saliva α-amylase (Morrison); assay type: biochemical; conditions: 37 °C, 50 mM sodium phosphate, 100 mM NaCl, pH 7.0; CNPG3 3.3 mM (KM 3.4 mM), nominal [E] 100 nM; 10 min pre-incubation; 405 nm; Morrison fit, competitive mode assumed; mean ± SE (n = 3); read-out: Ki against HSA
Description: as §1, §2, §3

Sequence of human salivary α-amylase (HSA) (P0DUB6 16-511): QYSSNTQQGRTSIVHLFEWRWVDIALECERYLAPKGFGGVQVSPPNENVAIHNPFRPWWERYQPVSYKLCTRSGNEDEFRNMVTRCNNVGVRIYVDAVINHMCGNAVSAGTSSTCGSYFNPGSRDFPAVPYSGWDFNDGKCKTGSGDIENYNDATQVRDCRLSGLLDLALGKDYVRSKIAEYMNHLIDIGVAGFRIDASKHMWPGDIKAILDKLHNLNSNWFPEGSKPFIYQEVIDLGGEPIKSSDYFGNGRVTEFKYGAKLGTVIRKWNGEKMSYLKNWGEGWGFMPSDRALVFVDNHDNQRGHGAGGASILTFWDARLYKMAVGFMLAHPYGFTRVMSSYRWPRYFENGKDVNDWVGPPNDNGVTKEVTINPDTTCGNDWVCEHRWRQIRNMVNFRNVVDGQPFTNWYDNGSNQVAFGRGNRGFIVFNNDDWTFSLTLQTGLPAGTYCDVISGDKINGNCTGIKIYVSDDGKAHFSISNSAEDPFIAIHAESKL

In the case of “SEGTSCYIYHGVYGICKAKCAEDMKAMAGMGVCEGDLCCYKTPW (disulfide 6-38, 16-33, 20-39) [r-magnificamide]”, the Ki [1] is reported as 0.17 ± 0.06 nM, the “Channel modulating activity, Shaker” value (Shaker IR) is reported as “Not active” and the “Ion channel modulating activity, overall” value ([2]; listed as r-Magnificamide) is reported as “did not reveal ion channel modulating activity”. The “Ion channel modulating activity, overall” value ([2]; listed as recombinant analog of magnificamide) was “does not show antimicrobial or channel modulating activities” and the Ki [3] was 7.7 ± 1.5 nM.
